From US20230092679A1, “MCL-1 INHIBITOR ANTIBODY-DRUG CONJUGATES AND METHODS OF USE” (NOVARTIS AG, priority 2019, published 2023) come the findings set out here.

Test [1] concerns KMS21 BM cells. Nature of the test: CTG cell viability assay, KMS21 BM cells. The class given is cell-based. The following applies: FIG. 18. The protocol: Cell viability may also be measured, e.g., by quantifying ATP, an indicator of metabolically active cells. In some embodiments, in vitro potency and/or cell viability of prepared ADCs or Mcl-1 inhibitor compounds may be assessed using a CellTiter-Glo® (CTG) cell viability assay, as described in the examples provided herein. In this assay, in some embodiments, the single reagent (CellTiter-Glo® Reagent) is added directly to cells cultured in serum-supplemented medium. The addition of reagent results in cell lysis and generation of a luminescent signal proportional to the amount of ATP present. The amount of ATP is directly proportional to the number of cells present in culture

In test [2] the test system is KMS21 BM cells. Nature of the test: Cell viability CTG assay, anti-CD46-Mcl-1 ADC (Example 14). The class given is cell-based. The following applies: 72h. The protocol: KMS21 BM cells were cultivated in RPM11640 supplemented with 10% heat inactivated fetal bovine serum, penicillin (100 IU/ml), streptomycin (100 μg/ml) and L-glutamine (2 mM), at 37° C. in a humidified atmosphere containing 5% CO2. KMS21 BM cells were seeded in 96 microwell plates and exposed to the ADCs for 72h (3.16 fold serially diluted; 9 concentrations each, triplicates). […] All the conditions were tested in triplicates. Luminescence was quantified on a multipurpose plate reader. IC50s (Table 33) were calculated using standard four-parametric curve fitting. […] Each experiment was performed at least twice, with results being reproducible.

Regarding `COc1ccccc1-c1nccc(COc2ccccc2C[C@@H](Oc2ncnc3sc(-c4ccc(F)cc4)c(-c4ccc(OCCN5CCN(C)CC5)c(Cl)c4C)c23)C(=O)O)n1` [C1, (2R)-2-[(5Sa)-5-[3-chloro-2-methyl-4-[2-(4-methylpiperazin-1-yl)ethoxy]phenyl]-6-(4-fluorophenyl)thieno[2,3-d]pyrimidin-4-yl]oxy-3-[2-[[2-(2-methoxyphenyl)pyrimidin-4-yl]methoxy]phenyl]propanoic acid], the “viability of KMS21 BM cells” value in the test on KMS21 BM cells [1] was “dose dependent decrease in the viability”. Further, the “viability of KMS21 BM cells in CTG assay, in words” value in the test with KMS21 BM cells [2] (FIG. 18) is recorded as “dose dependent decrease in the viability”. In addition, the IC50 with KMS21 BM cells [2] (KMS-21BM, KMS21BM cell line, CTG) was 2.31 nM.

Usually IC50 stands for the concentration that gives 50% inhibition.
